Source: ChEMBL document CHEMBL5465560, “Selectivity Literature for EUbOPEN Chemogenomic Library” (2024)

What was measured:
[1] = biological target: Homeodomain-interacting protein kinase 2 (Homo sapiens, UniProt Q9H2X6); assay: Selectivity interaction (KinomeScan (DiscoverX)) EUB0000229b HIPK2; details: at 10 µM
[2] = system: Mast/stem cell growth factor receptor Kit (Homo sapiens), P10721 [V559D]; assay: (§1) Selectivity interaction (KinomeScan (DiscoverX)) EUB0000092b KIT; details: at 10 µM
[3] = system: Mast/stem cell growth factor receptor Kit (Homo sapiens), P10721 [L576P]; assay: as §1; details: at 10 µM
EML4-ALK (Homo sapiens) = EML4-ALK (Homo sapiens) (UniProt Q9UM73+Q9HC35); assay: Selectivity interaction (ProQinase) EUB0000171b ALK; assay type: protein assay; details: at 1 µM
[4] = biological target: T1, TGF-beta receptor type-1 (Homo sapiens) (UniProt P36897); assay: Selectivity interaction (ProQinase) EUB0000171b TGFBR1
T1 sequence (whole entry): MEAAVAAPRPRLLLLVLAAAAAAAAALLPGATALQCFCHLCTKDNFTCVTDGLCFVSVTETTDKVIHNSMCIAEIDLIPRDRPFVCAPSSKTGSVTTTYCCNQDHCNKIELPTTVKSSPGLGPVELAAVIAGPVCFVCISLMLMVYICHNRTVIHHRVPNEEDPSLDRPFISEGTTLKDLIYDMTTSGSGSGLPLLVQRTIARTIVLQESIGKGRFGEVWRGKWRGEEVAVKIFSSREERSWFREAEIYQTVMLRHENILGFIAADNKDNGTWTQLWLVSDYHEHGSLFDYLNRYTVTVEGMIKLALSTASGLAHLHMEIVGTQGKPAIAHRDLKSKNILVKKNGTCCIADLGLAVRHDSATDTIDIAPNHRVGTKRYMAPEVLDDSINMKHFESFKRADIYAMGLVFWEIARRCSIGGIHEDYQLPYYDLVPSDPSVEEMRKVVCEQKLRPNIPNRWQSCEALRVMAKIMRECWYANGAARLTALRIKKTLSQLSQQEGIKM

[5] = biological target: Death-associated protein kinase 3 (Homo sapiens) (UniProt O43293); assay: Selectivity interaction (ProQinase) EUB0000171b DAPK3
Chain of Death-associated protein kinase 3 (Homo sapiens) (O43293 whole entry, looked up): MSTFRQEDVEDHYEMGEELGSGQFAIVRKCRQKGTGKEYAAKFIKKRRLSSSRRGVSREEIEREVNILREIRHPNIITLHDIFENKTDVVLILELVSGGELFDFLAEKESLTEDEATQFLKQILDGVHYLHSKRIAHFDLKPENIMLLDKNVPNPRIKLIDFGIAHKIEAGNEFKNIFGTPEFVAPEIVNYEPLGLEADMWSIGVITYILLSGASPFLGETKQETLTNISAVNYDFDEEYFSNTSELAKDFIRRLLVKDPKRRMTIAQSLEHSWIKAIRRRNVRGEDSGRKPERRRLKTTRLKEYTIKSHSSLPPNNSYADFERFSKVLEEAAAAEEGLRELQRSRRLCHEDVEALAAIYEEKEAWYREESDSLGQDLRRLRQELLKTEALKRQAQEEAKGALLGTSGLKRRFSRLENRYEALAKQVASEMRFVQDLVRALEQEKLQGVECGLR

[6] = biological target: Cyclin-dependent kinase 3 (Homo sapiens) (UniProt Q00526); assay: Selectivity interaction (KinomeScan (DiscoverX)) EUB0001079a CDK3; details: at 1 µM
Chain of Cyclin-dependent kinase 3 (Homo sapiens) (Q00526 whole entry, looked up): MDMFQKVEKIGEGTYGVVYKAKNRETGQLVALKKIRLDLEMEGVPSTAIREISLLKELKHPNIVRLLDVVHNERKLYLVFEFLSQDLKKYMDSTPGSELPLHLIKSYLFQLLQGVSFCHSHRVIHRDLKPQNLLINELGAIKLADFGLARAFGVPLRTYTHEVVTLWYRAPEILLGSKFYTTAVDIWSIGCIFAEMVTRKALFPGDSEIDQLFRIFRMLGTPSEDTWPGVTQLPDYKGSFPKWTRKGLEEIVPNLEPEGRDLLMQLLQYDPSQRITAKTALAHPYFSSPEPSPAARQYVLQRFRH

[7] = biological target: Ribosomal protein S6 kinase alpha-5 (Homo sapiens) (UniProt O75582); assay: Selectivity interaction (KinomeScan (DiscoverX)) EUB0000666a RPS6KA5; details: at 10 µM
[8] = biological target: Glycogen synthase kinase-3 beta (Homo sapiens, UniProt P49841); assay: Selectivity interaction (Kinase panel (33PanQinase(R) Activity Assay)) EUB0000877a GSK3B
Chain of Glycogen synthase kinase-3 beta (P49841 whole entry): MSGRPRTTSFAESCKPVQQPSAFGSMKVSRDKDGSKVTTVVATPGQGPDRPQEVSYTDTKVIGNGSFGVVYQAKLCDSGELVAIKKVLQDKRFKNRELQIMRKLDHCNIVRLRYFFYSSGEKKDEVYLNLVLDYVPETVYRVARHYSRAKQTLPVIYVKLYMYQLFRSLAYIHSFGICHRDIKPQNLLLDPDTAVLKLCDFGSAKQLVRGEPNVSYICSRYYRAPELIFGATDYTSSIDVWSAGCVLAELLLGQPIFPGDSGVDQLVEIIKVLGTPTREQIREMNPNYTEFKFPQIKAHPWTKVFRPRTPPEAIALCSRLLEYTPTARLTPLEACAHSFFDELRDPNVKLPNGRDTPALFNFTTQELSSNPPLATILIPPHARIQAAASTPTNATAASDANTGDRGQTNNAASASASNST

SRSF protein kinase 1 = SRSF protein kinase 1 (Homo sapiens, UniProt Q96SB4); details: at 10 µM
[9] = biological target: T2, Cyclin-G-associated kinase (Homo sapiens) (UniProt O14976); assay: Selectivity interaction (LanthaScreen Eu Kinase Binding Assay) EUB0001632a GAK; details: at 10 µM
T2 sequence (whole entry): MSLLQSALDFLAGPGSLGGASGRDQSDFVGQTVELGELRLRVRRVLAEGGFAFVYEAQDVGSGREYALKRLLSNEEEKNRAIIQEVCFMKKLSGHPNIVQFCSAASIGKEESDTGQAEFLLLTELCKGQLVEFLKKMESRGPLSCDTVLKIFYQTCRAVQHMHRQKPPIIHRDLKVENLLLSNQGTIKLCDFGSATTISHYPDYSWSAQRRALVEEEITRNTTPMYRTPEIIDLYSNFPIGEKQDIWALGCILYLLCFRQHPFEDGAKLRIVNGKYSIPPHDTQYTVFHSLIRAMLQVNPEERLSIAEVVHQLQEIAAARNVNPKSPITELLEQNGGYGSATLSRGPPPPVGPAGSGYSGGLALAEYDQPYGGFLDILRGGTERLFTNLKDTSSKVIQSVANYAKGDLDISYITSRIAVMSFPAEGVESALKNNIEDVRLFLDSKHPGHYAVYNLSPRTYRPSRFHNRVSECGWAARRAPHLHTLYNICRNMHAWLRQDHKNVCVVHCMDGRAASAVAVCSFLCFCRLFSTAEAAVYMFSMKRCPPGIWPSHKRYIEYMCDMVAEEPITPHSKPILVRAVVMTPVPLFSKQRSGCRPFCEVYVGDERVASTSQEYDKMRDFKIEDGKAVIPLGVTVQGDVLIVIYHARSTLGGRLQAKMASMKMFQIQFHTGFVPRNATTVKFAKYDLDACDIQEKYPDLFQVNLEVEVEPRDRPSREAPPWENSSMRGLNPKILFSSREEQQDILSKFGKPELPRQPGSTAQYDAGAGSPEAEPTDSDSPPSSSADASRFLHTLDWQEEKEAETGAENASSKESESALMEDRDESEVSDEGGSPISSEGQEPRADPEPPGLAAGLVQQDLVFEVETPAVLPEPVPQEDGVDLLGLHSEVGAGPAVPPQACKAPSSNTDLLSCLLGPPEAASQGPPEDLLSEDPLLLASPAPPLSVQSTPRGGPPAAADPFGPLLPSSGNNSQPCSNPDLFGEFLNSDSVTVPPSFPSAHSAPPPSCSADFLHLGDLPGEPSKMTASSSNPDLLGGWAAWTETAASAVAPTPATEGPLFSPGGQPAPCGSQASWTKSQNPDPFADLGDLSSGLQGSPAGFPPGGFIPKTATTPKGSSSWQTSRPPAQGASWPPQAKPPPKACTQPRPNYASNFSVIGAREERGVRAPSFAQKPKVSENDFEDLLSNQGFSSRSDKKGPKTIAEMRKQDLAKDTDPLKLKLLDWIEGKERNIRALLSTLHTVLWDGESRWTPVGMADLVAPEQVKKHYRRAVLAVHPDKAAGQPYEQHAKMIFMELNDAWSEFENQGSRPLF

[10] = biological target: RAC-alpha serine/threonine-protein kinase (Homo sapiens, UniProt P31749); assay: Selectivity interaction (ActivX KiNativ screen (kinase selectivity in THP-1 cell lysates)) EUB0000639a AKT1; assay type: subcellular; details: lysate
Chain of RAC-alpha serine/threonine-protein kinase (P31749 whole entry): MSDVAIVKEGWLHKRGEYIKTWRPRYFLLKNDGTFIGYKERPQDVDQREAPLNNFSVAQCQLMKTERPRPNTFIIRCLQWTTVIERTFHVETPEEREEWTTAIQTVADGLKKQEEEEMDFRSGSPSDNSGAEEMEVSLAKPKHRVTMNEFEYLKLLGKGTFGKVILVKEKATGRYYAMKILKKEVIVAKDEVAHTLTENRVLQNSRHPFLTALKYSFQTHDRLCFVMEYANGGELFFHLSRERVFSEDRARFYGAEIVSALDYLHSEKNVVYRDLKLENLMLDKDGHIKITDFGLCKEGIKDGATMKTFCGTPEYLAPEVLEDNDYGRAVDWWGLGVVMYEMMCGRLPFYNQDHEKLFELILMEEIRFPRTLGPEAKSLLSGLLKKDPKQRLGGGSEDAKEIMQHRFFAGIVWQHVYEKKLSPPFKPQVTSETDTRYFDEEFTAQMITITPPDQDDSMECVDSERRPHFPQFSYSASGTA

[11] = biological target: Proto-oncogene tyrosine-protein kinase Src (Homo sapiens, UniProt P12931); assay: Selectivity interaction (KinomeScan (DiscoverX)) EUB0000695a SRC; details: at 100 nM
Chain of Proto-oncogene tyrosine-protein kinase Src (P12931 2-536 limits assumed): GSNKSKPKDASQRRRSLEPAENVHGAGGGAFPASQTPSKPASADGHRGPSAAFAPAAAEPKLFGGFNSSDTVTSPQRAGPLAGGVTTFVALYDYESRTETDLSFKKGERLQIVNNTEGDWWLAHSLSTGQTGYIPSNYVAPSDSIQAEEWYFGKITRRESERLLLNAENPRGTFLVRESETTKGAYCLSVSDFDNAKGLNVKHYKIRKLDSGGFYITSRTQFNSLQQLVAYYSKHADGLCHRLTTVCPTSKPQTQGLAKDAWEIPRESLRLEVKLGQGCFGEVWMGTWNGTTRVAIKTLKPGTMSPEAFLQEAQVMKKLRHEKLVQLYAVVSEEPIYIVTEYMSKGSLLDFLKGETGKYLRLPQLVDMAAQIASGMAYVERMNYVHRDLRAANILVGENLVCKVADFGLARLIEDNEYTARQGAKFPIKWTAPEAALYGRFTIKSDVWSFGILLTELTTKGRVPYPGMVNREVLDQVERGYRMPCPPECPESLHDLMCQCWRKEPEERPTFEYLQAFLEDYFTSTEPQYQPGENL

[12] = biological target: Mitogen-activated protein kinase 8 (Homo sapiens, UniProt P45983); assay: Selectivity interaction (KinomeScan (DiscoverX)) EUB0000595a MAPK8; details: at 10 µM
Chain of Mitogen-activated protein kinase 8 (P45983 whole entry): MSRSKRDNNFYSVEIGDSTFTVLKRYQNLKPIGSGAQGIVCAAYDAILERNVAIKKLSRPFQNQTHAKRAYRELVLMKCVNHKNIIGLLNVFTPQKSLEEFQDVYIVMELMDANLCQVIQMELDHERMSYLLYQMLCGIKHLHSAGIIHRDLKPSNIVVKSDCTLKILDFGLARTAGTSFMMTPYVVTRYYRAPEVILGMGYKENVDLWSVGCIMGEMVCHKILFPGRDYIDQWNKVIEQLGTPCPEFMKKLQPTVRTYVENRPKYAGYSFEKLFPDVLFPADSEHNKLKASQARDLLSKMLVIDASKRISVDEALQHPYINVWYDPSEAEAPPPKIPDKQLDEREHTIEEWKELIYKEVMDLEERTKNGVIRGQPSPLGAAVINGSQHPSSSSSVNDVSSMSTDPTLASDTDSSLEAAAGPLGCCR

[13] = biological target: Serine/threonine-protein kinase SBK1 (Homo sapiens) (UniProt Q52WX2); assay: Selectivity interaction (KinomeScan (DiscoverX)) EUB0000595a SBK1; details: at 10 µM
Chain of Serine/threonine-protein kinase SBK1 (Homo sapiens) (Q52WX2 whole entry): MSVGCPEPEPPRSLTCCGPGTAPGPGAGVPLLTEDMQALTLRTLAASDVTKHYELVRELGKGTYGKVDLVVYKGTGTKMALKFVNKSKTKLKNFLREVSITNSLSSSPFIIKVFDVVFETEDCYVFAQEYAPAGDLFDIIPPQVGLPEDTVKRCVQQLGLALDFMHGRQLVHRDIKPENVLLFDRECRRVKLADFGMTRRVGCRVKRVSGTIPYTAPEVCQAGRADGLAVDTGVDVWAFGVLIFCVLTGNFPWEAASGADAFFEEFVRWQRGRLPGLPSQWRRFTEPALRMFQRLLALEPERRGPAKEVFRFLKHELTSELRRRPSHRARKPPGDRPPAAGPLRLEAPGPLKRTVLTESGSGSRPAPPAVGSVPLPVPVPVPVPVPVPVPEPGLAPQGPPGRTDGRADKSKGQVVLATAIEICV

Ephrin type-A receptor 4 = Ephrin type-A receptor 4 (Homo sapiens, UniProt P54764); assay: Selectivity interaction (Ambit KINOMEscan and KiNATiv profiling in Jurkat cells) EUB0000090b EPHA4; assay type: cell-based; details: at 1 µM
Chain of Ephrin type-A receptor 4 (P54764 whole entry): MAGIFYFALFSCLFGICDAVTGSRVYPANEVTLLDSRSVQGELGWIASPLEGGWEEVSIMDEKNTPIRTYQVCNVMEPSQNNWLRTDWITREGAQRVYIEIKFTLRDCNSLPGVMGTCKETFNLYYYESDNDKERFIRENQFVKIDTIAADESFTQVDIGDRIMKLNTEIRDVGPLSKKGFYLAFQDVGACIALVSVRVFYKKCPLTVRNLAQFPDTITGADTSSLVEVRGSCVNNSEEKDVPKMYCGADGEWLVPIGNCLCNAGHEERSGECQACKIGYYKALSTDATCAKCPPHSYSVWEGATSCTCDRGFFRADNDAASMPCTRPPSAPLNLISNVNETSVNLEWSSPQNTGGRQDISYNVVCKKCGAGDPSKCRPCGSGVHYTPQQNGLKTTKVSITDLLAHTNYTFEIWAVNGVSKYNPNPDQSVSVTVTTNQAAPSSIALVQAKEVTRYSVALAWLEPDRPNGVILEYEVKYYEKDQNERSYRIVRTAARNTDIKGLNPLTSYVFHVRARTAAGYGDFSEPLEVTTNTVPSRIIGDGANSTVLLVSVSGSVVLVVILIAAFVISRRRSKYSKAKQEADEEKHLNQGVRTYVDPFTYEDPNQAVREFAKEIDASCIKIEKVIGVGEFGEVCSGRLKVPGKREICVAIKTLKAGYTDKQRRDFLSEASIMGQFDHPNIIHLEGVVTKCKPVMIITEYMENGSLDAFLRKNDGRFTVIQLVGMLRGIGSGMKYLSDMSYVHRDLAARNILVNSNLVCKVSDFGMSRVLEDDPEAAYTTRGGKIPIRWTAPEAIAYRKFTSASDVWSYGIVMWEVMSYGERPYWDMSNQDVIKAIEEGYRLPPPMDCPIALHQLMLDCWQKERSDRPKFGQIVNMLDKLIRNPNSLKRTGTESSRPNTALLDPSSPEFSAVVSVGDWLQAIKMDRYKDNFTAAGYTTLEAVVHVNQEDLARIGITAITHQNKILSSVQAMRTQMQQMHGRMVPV

Chain of Mast/stem cell growth factor receptor Kit (Homo sapiens), P10721 [V559D] (P10721 whole entry V559D): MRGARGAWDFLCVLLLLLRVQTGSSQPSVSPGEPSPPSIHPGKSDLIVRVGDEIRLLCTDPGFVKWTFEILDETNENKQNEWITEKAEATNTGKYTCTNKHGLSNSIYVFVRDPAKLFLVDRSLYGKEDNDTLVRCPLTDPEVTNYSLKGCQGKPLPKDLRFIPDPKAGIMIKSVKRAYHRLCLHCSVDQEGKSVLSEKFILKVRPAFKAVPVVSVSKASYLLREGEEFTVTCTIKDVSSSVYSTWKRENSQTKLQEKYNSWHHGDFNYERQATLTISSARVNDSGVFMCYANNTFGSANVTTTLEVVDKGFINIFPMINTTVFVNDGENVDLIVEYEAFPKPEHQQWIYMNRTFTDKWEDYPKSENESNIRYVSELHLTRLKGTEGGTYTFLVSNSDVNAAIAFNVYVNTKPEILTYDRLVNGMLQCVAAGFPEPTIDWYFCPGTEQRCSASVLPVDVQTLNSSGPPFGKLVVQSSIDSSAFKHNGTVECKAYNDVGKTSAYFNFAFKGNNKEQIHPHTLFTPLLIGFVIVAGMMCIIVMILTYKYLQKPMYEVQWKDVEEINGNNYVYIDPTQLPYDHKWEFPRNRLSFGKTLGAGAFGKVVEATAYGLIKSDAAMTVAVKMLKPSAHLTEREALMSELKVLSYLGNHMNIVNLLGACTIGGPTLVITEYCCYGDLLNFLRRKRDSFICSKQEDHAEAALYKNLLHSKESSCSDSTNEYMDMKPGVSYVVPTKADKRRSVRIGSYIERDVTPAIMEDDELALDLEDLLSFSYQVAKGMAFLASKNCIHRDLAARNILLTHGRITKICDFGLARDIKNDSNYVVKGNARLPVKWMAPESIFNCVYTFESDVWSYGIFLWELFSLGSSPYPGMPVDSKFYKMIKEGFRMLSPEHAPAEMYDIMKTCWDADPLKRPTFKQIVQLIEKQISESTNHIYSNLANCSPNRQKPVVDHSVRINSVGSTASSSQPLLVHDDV

COc1cc(N(C)c2ccnc3ccc(C(F)(F)F)cc23)cc(OC)c1OC
% binding [1]: 100%

CCC(=O)N1CCN(c2ccc(-n3c(=O)ccc4cnc5ccc(-c6cnc7ccccc7c6)cc5c43)cc2C(F)(F)F)CC1
% of control [2]: 50%
% of control [3]: 48%

C=CC(=O)Nc1cccc(C(=O)Nc2ccc(Nc3cc(-c4[nH]c(SC)nc4C)ccn3)cc2)c1
% of control (EML4-ALK (Homo sapiens)): 93%
% of control ([4]; at 1 µM): 106%
% of control ([4]; at 5 µM): 92%
% of control ([5]; at 1 µM): 88%
% of control ([5]; at 5 µM): 88%

Nc1cnc(N2CCc3cc(S(=O)(=O)Nc4c(F)cc(Cl)cc4F)cc(N4CCCC4=O)c32)nc1 [TP-020n]
% of control [6]: 100%

O=C(NOC[C@H](O)CO)c1ccc(F)c(F)c1Nc1ccc(I)cc1F
% of control [7]: 100%

CCC(=O)N1CC[C@H](Nc2ncnc3c2CN(c2cnc(OC)c(C(F)(F)F)c2)CC3)C1 [LENIOLISIB]
IC50 [8]: > 10 µM

Cc1cc([C@@H](C)Nc2ccccc2C(=O)O)c2nc(N3CCOCC3)cc(=O)n2c1 [AZD-6482]
% of control (SRSF protein kinase 1): 100%

Cn1cc(-n2cnc3c(NCc4nc5cc(Cl)c(Cl)cc5[nH]4)nc(N4CCOCC4)nc32)cn1
% of inhibition [9]: -16.7%

CC[C@@H]1[C@H](F)C(=O)N[C@@H]1COc1nccc2cc(C(N)=O)c(OC)cc12 [ZIMLOVISERTIB]
% of inhibition ([10]; at 0.01 µM): -4.8%
% of inhibition ([10]; at 0.04 µM): 7.5%
% of inhibition ([10]; at 0.2 µM): 11.8%
% of inhibition ([10]; at 1 µM): 9.4%
% of inhibition ([10]; at 5 µM): 7.6%

Cc1cc(F)c(C(=O)Nc2cccc(-c3nncn3C(C)C)n2)cc1-n1cnc(C2CC2)c1
% of control [11]: 100%

COCC(=O)NC/C=C/c1ccc2ncnc(Nc3ccc(Oc4ccc(C)nc4)c(C)c3)c2c1 [CP-724714]
% of control [12]: 66%
% of control [13]: 100%

CN(C)C/C=C/C(=O)Nc1ccc(C(=O)N2CCCC(Nc3ncc(Cl)c(-c4c[nH]c5ccccc45)n3)C2)cc1 (configuration not stated)
% of control (Ephrin type-A receptor 4): 98%
